This passage reports Ki results from BindingDB's records for doi:10.1016/s0960-894x(00)00026-3 (Universit&#224, 2000).

A short description of this test: Inhibition of Clostridium histolyticum collagenase using a linear regression program.

As a reminder, the Ki is the equilibrium dissociation constant of an inhibitor or competing ligand from its target. Lower therefore signals higher affinity. Turning to `CC(C(=O)NO)N(Cc1ccc([N+](=O)[O-])cc1)S(=O)(=O)c1cccc2c(N(C)C)cccc12` (stereo unspecified) [2-[(5-Dimethylamino-naphthalene-1-sulfonyl)-(4-nitro-benzyl)-amino]-N-hydroxy-propionamide], the Ki turned out to be 7 µM. Next, `CC(C(=O)NO)N(Cc1ccc([N+](=O)[O-])cc1)S(=O)(=O)c1ccc(Br)cc1` (stereo unspecified) [2-[(4-Bromo-benzenesulfonyl)-(4-nitro-benzyl)-amino]-N-hydroxy-propionamide]: 30 µM.

On to `CC(C(=O)O)N(Cc1ccc([N+](=O)[O-])cc1)S(=O)(=O)c1ccc(C(=O)O)cc1` (stereo unspecified) [4-[(1-Carboxy-ethyl)-(4-nitro-benzyl)-sulfamoyl]-benzoic acid], for which affinity was put at a Ki of 1.4 µM. The figure for `CC(C(=O)O)N(Cc1ccc([N+](=O)[O-])cc1)S(=O)(=O)c1ccc(NC(=O)OC(C)(C)C)cc1` (stereo unspecified) [2-[(4-tert-Butoxycarbonylamino-benzenesulfonyl)-(4-nitro-benzyl)-amino]-propionic acid] is 2.4 µM.

With `CC(C(=O)O)N(Cc1ccc([N+](=O)[O-])cc1)S(=O)(=O)c1ccc(Cl)cc1` (stereo unspecified) [2-[(4-Chloro-benzenesulfonyl)-(4-nitro-benzyl)-amino]-propionic acid], the affinity corresponds to a Ki of 9 µM. The figure for `COc1ccc(S(=O)(=O)N(Cc2ccc([N+](=O)[O-])cc2)C(C)C(=O)NO)cc1` (stereo unspecified) [N-Hydroxy-2-[(4-methoxy-benzenesulfonyl)-(4-nitro-benzyl)-amino]-propionamide] is 21 µM.

The compound `CC(C(=O)NO)N(Cc1ccc([N+](=O)[O-])cc1)S(=O)(=O)C(Cl)(Cl)Cl` (stereo unspecified) [N-Hydroxy-2-[(4-nitro-benzyl)-trichloromethanesulfonyl-amino]-propionamide] came in with a Ki of 52 µM. Next, `CC(C(=O)O)N(Cc1ccc([N+](=O)[O-])cc1)S(=O)(=O)c1ccc([N+](=O)[O-])cc1` (stereo unspecified) [2-[(4-Nitro-benzenesulfonyl)-(4-nitro-benzyl)-amino]-propionic acid]: 5.3 µM. Next, `Cc1cc(C)c(S(=O)(=O)N(Cc2ccc([N+](=O)[O-])cc2)C(C)C(=O)NO)c(C)c1` (stereo unspecified) [N-Hydroxy-2-[(4-nitro-benzyl)-(2,4,6-trimethyl-benzenesulfonyl)-amino]-propionamide]: 17 µM; `CC(C(=O)O)N(Cc1ccc([N+](=O)[O-])cc1)S(=O)(=O)c1ccc(F)cc1` (stereo unspecified) [2-[(4-Fluoro-benzenesulfonyl)-(4-nitro-benzyl)-amino]-propionic acid]: 10 µM; `CC(C(=O)NO)N(Cc1ccc([N+](=O)[O-])cc1)S(=O)(=O)c1ccc(F)cc1` (stereo unspecified) [2-[(4-Fluoro-benzenesulfonyl)-(4-nitro-benzyl)-amino]-N-hydroxy-propionamide]: 35 µM.

For `CC(C(=O)NO)N(Cc1ccc([N+](=O)[O-])cc1)S(=O)(=O)c1cccc2cccnc12` (stereo unspecified) [N-Hydroxy-2-[(4-nitro-benzyl)-(quinoline-8-sulfonyl)-amino]-propionamide], affinity was put at a Ki of 8 µM. Regarding `CC(C(=O)NO)N(Cc1ccc([N+](=O)[O-])cc1)S(=O)(=O)C(F)(F)C(F)(F)C(F)(F)C(F)(F)C(F)(F)C(F)(F)C(F)(F)C(F)(F)F` (stereo unspecified) [2-[(Heptadecafluorooctane-1-sulfonyl)-(4-nitro-benzyl)-amino]-N-hydroxy-propionamide], the Ki amounted to 7 µM. The Ki values of the last two compounds are within 1.5-fold of each other. Next, `CC(C(=O)O)N(Cc1ccc([N+](=O)[O-])cc1)C(=O)NS(=O)(=O)c1ccc(F)cc1` (stereo unspecified) [2-[({[(4-fluorophenyl)sulfonyl]amino}carbonyl)(4-nitrobenzyl)amino]propanoic acid]: 3.3 µM; `Cc1ccc(S(=O)(=O)NC(=O)N(Cc2ccc([N+](=O)[O-])cc2)C(C)C(=O)NO)cc1` (stereo unspecified) [N-hydroxy-2-[({[(4-methylphenyl)sulfonyl]amino}carbonyl)(4-nitrobenzyl)amino]propanamide]: 12 µM. Turning to `CC(C(=O)O)N(Cc1ccc([N+](=O)[O-])cc1)S(=O)(=O)C(F)(F)C(F)(F)C(F)(F)C(F)(F)C(F)(F)C(F)(F)C(F)(F)C(F)(F)F` (stereo unspecified) [2-[(Heptadecafluorooctane-1-sulfonyl)-(4-nitro-benzyl)-amino]-propionic acid], the Ki came to 1.8 µM. Compared with the last compound, the Ki is about 6.7-fold lower.

With `CC(C(=O)O)N(Cc1ccc([N+](=O)[O-])cc1)S(=O)(=O)c1cccc(NC(=O)OC(C)(C)C)c1` (stereo unspecified) [2-[(3-tert-Butoxycarbonylamino-benzenesulfonyl)-(4-nitro-benzyl)-amino]-propionic acid], the affinity corresponds to a Ki of 2.6 µM. Next, `CC(C(=O)NO)N(Cc1ccc([N+](=O)[O-])cc1)C(=O)Nc1ccc(F)cc1` (stereo unspecified) [2-[3-(4-Fluoro-phenyl)-1-(4-nitro-benzyl)-ureido]-N-hydroxy-propionamide]: 12 µM; `CC(C(=O)NO)N(Cc1ccc([N+](=O)[O-])cc1)S(=O)(=O)c1ccccc1` (stereo unspecified) [2-[Benzenesulfonyl-(4-nitro-benzyl)-amino]-N-hydroxy-propionamide]: 54 µM; `CC(C(=O)O)N(Cc1ccc([N+](=O)[O-])cc1)S(=O)(=O)C(Cl)(Cl)Cl` (stereo unspecified) [2-[(4-Nitro-benzyl)-trichloromethanesulfonyl-amino]-propionic acid]: 5.1 µM.

The compound `CC(C(=O)NO)N(Cc1ccc([N+](=O)[O-])cc1)C(=O)Nc1ccc(Cl)c(Cl)c1` (stereo unspecified) [2-[3-(3,4-Dichloro-phenyl)-1-(4-nitro-benzyl)-ureido]-N-hydroxy-propionamide] displayed a Ki of 13 µM.

As to `CC(C(=O)NO)N(Cc1ccc([N+](=O)[O-])cc1)C(=S)NC(=O)c1ccccc1` (stereo unspecified) [2-[3-Benzoyl-1-(4-nitro-benzyl)-thioureido]-N-hydroxy-propionamide], the Ki stood at 6 µM. Regarding `CC(C(=O)O)N(Cc1ccc([N+](=O)[O-])cc1)S(=O)(=O)c1cccc2cccnc12` (stereo unspecified) [2-[(4-Nitro-benzyl)-(quinoline-8-sulfonyl)-amino]-propionic acid], the Ki was found to be 1.2 µM. Next, `CC(C(=O)O)N(Cc1ccc([N+](=O)[O-])cc1)S(=O)(=O)c1cc(Cl)ccc1Cl` (stereo unspecified) [2-[(2,5-Dichloro-benzenesulfonyl)-(4-nitro-benzyl)-amino]-propionic acid]: 3.6 µM. The figure for `CC(C(=O)O)N(Cc1ccc([N+](=O)[O-])cc1)S(=O)(=O)c1cc(Cl)cc(Cl)c1O` (stereo unspecified) [2-[(3,5-Dichloro-2-hydroxy-benzenesulfonyl)-(4-nitro-benzyl)-amino]-propionic acid] is 2.5 µM; for `COc1ccc(S(=O)(=O)N(Cc2ccc([N+](=O)[O-])cc2)C(C)C(=O)NO)cc1NC(=O)OC(C)(C)C` (stereo unspecified) [{5-[(1-Hydroxycarbamoyl-ethyl)-(4-nitro-benzyl)-sulfamoyl]-2-methoxy-phenyl}-carbamic acid tert-butyl ester] it is 8 µM.

As to `Cc1cc(C)c(S(=O)(=O)N(Cc2ccc([N+](=O)[O-])cc2)C(C)C(=O)O)c(C)c1` (stereo unspecified) [2-[(4-Nitro-benzyl)-(2,4,6-trimethyl-benzenesulfonyl)-amino]-propionic acid], the affinity, expressed as Ki, was 6 µM. The figure for `CC(C(=O)NO)N(Cc1ccc([N+](=O)[O-])cc1)S(=O)(=O)c1cccc2ccccc12` (stereo unspecified) [N-Hydroxy-2-[(naphthalene-1-sulfonyl)-(4-nitro-benzyl)-amino]-propionamide] is 7 µM. Next, `CC(C(=O)NO)N(Cc1ccc([N+](=O)[O-])cc1)S(=O)(=O)C(F)(F)C(F)(F)C(F)(F)C(F)(F)F` (stereo unspecified) [2-(N-(4-nitrobenzyl)-2,2,12,12,15,15,18,18,18-nonafluorobutan-2-ylsulfonamido)-N-hydroxypropanamide]: 11 µM; `CC(C(=O)O)N(Cc1ccc([N+](=O)[O-])cc1)C(=O)Nc1ccc(Cl)c(Cl)c1` (stereo unspecified) [2-[3-(3,4-Dichloro-phenyl)-1-(4-nitro-benzyl)-ureido]-propionic acid]: 5 µM; `CC(C(=O)NO)N(Cc1ccc([N+](=O)[O-])cc1)S(=O)(=O)c1cc(Cl)cc(Cl)c1O` (stereo unspecified) [2-[(3,5-Dichloro-2-hydroxy-benzenesulfonyl)-(4-nitro-benzyl)-amino]-N-hydroxy-propionamide]: 12 µM. The figure for `COc1ccc(S(=O)(=O)N(Cc2ccc([N+](=O)[O-])cc2)C(C)C(=O)O)cc1NC(=O)OC(C)(C)C` (stereo unspecified) [2-[(3-tert-Butoxycarbonylamino-4-methoxy-benzenesulfonyl)-(4-nitro-benzyl)-amino]-propionic acid] is 2.1 µM; for `CC(C(=O)O)N(Cc1ccc([N+](=O)[O-])cc1)S(=O)(=O)c1cccc([N+](=O)[O-])c1` (stereo unspecified) [2-[(3-Nitro-benzenesulfonyl)-(4-nitro-benzyl)-amino]-propionic acid] it is 5.5 µM; for `CC(C(=O)O)N(Cc1ccc([N+](=O)[O-])cc1)S(=O)(=O)c1ccccc1[N+](=O)[O-]` (stereo unspecified) [2-[(2-Nitro-benzenesulfonyl)-(4-nitro-benzyl)-amino]-propionic acid] it is 4.8 µM. For `CC(C(=O)O)N(Cc1ccc([N+](=O)[O-])cc1)S(=O)(=O)C(F)(F)C(F)(F)C(F)(F)C(F)(F)F` (stereo unspecified) [2-[(4-Nitro-benzyl)-(nonafluorobutane-1-sulfonyl)-amino]-propionic acid], the affinity corresponds to a Ki of 2.3 µM. For `CC(C(=O)O)N(Cc1ccc([N+](=O)[O-])cc1)S(=O)(=O)c1cccc(C(=O)O)c1` (stereo unspecified) [3-[(1-Carboxy-ethyl)-(4-nitro-benzyl)-sulfamoyl]-benzoic acid], the affinity, expressed as Ki, was 2 µM. The figure for `CC(C(=O)O)N(Cc1ccc([N+](=O)[O-])cc1)Sc1ccc([N+](=O)[O-])cc1` (stereo unspecified) [2-[(4-Nitro-benzyl)-(4-nitro-phenylsulfanyl)-amino]-propionic acid] is 5.5 µM. Next, `CC(C(=O)NO)N(Cc1ccc([N+](=O)[O-])cc1)C(=O)Nc1ccc(Cl)cc1` (stereo unspecified) [2-[3-(4-Chloro-phenyl)-1-(4-nitro-benzyl)-ureido]-N-hydroxy-propionamide]: 18 µM; `CC(C(=O)O)N(Cc1ccc([N+](=O)[O-])cc1)S(=O)(=O)N(C)C` (stereo unspecified) [2-[[(dimethylamino)sulfonyl](4-nitrobenzyl)amino]propanoic acid]: 36 µM. The figure for `CC(C(=O)NO)N(Cc1ccc([N+](=O)[O-])cc1)S(=O)(=O)N(C)C` (stereo unspecified) [2-[[(dimethylamino)sulfonyl](4-nitrobenzyl)amino]-N-hydroxypropanamide] is 69 µM; for `CC(C(=O)O)N(Cc1ccc([N+](=O)[O-])cc1)S(=O)(=O)c1ccc(I)cc1` (stereo unspecified) [2-[(4-Iodo-benzenesulfonyl)-(4-nitro-benzyl)-amino]-propionic acid] it is 12 µM.
